Assay results: paper PMC4604091, “Two homolog wheat Glycogen Synthase Kinase 3/SHAGGY - like kinases are involved in brassinosteroid signaling” (BMC Plant Biology, 2015)

Experiments:
[1] = target: T1, TaGSK1 (Triticum aestivum, UniProt Q8LK43); assay: in vitro kinase assay, […] phosphorylation of myelin basic protein, autoradiography; assay type: biochemical; details: read-out: % residual activity at 15 μM
T1 construct: full length, N-terminal GST fusion, expressed in E. coli, glutathione Sepharose purified, tag kept

[2] = target: T2, BIN2 (Arabidopsis thaliana, UniProt Q39011); assay: as above; assay type: biochemical; details: read-out: % residual activity at 15 μM
T2 construct: gene ASK7; full length, N-terminal GST fusion, expressed in E. coli, glutathione Sepharose purified, tag kept
T2 sequence (Q39011 1-380): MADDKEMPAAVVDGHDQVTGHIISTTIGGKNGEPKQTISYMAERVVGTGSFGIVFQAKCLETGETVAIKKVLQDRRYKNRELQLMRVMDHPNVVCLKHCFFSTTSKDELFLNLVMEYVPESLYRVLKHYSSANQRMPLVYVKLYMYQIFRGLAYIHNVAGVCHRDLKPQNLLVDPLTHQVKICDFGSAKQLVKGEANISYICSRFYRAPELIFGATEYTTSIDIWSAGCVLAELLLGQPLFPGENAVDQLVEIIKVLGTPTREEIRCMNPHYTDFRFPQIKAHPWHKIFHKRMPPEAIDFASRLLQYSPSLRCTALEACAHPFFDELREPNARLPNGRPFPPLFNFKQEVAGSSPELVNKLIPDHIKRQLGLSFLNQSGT

T1 sequence (Q8LK43 1-381): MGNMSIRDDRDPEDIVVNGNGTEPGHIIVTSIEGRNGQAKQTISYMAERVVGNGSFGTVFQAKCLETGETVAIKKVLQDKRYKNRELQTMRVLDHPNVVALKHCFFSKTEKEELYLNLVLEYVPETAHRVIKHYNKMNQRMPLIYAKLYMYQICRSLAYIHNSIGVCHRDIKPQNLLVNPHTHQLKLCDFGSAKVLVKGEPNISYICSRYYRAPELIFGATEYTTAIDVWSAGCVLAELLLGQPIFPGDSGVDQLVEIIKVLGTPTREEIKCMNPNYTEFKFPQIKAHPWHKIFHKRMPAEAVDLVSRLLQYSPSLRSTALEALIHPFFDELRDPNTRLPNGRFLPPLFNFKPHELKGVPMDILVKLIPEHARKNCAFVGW

- remaining activity at 15 µM [1]: ~30%
- remaining activity at 15 µM [2]: < 5%
SMILES: O=C(O)CCC(=O)Nc1ccc(Br)cn1 [Bikinin, 4-[(5-bromo-2-pyridinyl)amino]-4-oxobutanoic acid]
